Assay results: article PMC6344480 (Nature Communications, 2019)

Molecular target: T1, AsfvLIG (African swine fever virus BA71V, UniProt P35970)
T1 construct: gene LIG
Details: non-catalytic AsfvLIG:DNA complex; no Mg2+; bound in the adenylation domain near catalytic Lys151

T1 sequence (P35970 whole entry, looked up): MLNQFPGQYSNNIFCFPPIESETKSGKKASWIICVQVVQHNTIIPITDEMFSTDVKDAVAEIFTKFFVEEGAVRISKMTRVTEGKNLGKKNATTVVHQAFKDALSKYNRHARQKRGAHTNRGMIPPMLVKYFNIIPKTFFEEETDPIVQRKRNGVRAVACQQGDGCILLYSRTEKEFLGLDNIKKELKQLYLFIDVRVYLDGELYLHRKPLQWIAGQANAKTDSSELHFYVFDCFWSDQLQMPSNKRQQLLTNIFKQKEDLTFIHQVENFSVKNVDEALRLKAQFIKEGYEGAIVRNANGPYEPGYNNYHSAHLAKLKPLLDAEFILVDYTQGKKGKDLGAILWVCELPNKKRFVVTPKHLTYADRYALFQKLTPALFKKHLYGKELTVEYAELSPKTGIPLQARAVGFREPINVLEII

With `Nc1ncnc2c1ncn2[C@@H]1O[C@H](COP(=O)(O)OP(=O)(O)OP(=O)(O)O)[C@@H](O)[C@H]1O` [ATP] as the compound, how does the “X-ray crystal structure (Se-SAD)” value read?
Its value is “the ATP is bound by the AD domain and stabilized by various interactions”.
